Source: ChEMBL document CHEMBL1201862, “PubChem BioAssay data set” (2004)
The source made the active and inactive calls.

Columns and labels:
[1] = system: H4; assay: Luminescence Cell-Based Dose Response HTS to Identify Activators of 5'UTR Stem-Loop Driven Prion Protein mRNA Translation in H4 Neuroglioblastoma Cells. [Related pubchem assays: 1829 (Project Summary), 1814 (Primary HTS)]; format: functional; conditions: Homo sapiens
[2] = target: T1, Microphthalmia-associated transcription factor (Homo sapiens, UniProt O75030); assay: TRPM1 promoter luciferase signal decrease, dose response, MITF inhibitor project, cell-based, SK-MEL-5, cherry-picked, set 3 (AID 493073); format: functional
T1 sequence (O75030 whole entry): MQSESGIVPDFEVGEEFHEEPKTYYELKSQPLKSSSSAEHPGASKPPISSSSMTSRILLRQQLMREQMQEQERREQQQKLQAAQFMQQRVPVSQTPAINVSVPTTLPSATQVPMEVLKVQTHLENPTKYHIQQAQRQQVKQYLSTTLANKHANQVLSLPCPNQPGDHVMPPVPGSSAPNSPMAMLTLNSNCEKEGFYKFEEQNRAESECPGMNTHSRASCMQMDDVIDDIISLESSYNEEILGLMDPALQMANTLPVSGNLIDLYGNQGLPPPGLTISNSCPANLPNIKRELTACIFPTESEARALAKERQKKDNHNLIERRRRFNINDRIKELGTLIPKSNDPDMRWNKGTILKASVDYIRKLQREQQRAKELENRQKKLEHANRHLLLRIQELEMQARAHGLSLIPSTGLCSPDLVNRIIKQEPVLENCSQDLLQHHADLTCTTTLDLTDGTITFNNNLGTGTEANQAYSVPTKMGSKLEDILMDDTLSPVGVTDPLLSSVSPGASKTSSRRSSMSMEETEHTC

[3] = Luminescence Cell-Based Dose Confirmation HTS to Identify Activators of 5'UTR Stem-Loop Driven Alpha-Synuclein mRNA Translation in H4 Neuroglioblastoma Cells. [Related pubchem assays: 1829 (Project Summary), 1814 (Primary HTS)]; format: functional
[4] = system: A-375; assay: MITF: Counter assay: A375 proliferation Measured in Cell-Based System Using Plate Reader - 2084-03_Inhibitor_Dose_DryPowder_Activity. [Related pubchem assays (depositor defined):AID488944]; format: functional; conditions: Homo sapiens
[5] = A Cell Based Secondary Assay To Explore Cytotoxicity of Compounds that Sensitize Mycobacterium Tuberculosis to Beta-Lactam Antibiotics.; format: functional
[6] = target: T2, Short transient receptor potential channel 4 (Mus musculus, UniProt Q9QUQ5); assay: mouse TRPC4 channel activators, dose response, cell-based, HEK293 TRPC4/mu-opioid, Fluo-4 calcium (AID 434937); format: functional
T2 sequence (Q9QUQ5 whole entry): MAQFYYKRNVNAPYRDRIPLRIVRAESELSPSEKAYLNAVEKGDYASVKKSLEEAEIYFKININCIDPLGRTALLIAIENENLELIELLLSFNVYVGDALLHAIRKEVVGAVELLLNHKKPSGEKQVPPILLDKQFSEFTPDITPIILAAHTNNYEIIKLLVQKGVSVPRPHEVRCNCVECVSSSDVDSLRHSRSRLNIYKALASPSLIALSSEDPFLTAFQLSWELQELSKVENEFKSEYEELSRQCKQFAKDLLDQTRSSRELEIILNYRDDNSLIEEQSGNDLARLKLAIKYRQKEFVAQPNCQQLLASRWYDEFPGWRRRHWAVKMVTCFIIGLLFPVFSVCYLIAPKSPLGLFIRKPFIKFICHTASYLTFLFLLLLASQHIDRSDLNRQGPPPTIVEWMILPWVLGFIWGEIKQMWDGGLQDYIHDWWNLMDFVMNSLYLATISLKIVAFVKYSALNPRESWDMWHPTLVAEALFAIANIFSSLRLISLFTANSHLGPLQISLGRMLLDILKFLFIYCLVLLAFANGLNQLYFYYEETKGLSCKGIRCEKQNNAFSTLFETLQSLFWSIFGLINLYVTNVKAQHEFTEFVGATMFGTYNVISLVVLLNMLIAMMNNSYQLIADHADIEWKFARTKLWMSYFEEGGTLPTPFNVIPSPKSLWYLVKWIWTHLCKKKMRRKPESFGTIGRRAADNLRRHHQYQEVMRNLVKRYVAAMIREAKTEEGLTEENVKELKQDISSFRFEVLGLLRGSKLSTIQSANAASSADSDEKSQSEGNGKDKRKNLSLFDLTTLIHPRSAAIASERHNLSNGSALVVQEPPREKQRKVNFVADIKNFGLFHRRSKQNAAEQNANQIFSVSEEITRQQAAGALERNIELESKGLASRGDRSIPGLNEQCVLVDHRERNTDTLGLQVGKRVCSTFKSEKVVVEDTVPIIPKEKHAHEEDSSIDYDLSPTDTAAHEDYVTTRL

[7] = target: Mu-type opioid receptor (Homo sapiens, UniProt P35372); assay: (§1) Counterscreen for agonists of heterodimerization of the mu 1 (OPRM1) and delta 1 (OPRD1) opioid receptors: Luminescence-based cell-based high throughput dose response assay to identify agonists of OPRM1 homodimerization.; format: functional
Sequence of Mu-type opioid receptor (P35372 whole entry): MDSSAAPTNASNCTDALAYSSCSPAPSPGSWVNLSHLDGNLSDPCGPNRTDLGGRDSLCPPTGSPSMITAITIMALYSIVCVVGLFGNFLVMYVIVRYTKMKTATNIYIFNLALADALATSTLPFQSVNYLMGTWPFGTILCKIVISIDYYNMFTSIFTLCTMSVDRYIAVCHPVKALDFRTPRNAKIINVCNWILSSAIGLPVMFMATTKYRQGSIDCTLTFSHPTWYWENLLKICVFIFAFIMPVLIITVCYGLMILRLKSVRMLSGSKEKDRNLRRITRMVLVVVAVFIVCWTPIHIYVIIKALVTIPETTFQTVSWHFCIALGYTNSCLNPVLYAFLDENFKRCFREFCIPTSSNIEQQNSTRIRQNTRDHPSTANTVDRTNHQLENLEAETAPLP

[8] = target: Delta-type opioid receptor (Homo sapiens, UniProt P41143); assay: as §1, with “of OPRD1” for “of OPRM1”, “homodimerization. [Related pubchem assays (depositor defined):AID504326, AID504355, AID504692, AID504904, AID504905]” for “homodimerization.”; format: functional
Sequence of Delta-type opioid receptor (P41143 whole entry): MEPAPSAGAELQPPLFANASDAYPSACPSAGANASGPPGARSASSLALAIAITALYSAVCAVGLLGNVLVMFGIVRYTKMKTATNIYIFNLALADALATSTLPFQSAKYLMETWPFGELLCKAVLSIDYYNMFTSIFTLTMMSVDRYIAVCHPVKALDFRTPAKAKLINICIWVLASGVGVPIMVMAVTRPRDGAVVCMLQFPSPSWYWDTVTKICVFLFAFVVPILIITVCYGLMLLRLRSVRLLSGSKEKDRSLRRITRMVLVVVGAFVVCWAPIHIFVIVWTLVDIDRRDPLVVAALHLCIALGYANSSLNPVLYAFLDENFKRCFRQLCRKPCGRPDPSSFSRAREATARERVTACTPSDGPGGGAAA

[9] = target: 5-hydroxytryptamine receptor 5A (Homo sapiens, UniProt P47898); assay: Counterscreen for agonists of OPRM1-OPRD1 heterodimerization: luminescence-based cell-based high throughput dose response assay to identify agonists of 5-hydroxytryptamine (serotonin) 5A receptor (HTR5A). [Related pubchem assays (depositor defined):AID504326, AID504355, AID504692, AID504904, AID504905]; format: functional
Sequence of 5-hydroxytryptamine receptor 5A (P47898 whole entry, the tested form may be a part): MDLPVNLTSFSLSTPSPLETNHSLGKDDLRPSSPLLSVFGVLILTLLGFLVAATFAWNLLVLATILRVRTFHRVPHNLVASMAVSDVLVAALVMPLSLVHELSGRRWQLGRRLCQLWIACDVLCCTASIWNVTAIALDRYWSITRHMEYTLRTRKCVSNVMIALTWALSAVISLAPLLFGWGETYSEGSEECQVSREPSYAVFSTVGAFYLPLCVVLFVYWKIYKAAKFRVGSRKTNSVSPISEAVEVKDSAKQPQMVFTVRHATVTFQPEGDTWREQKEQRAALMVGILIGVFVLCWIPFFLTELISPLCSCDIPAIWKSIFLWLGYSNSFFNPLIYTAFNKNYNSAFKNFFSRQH

[10] = luciferase reporter signal reduction – luminescence, H4-C neuroglioblastoma cells, dose response (AID 2458); format: functional, cell-based;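 further: H4 neuroglioblastoma cells stably carrying a luciferase reporter gene fusion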
[11] = inhibitors of SNCA 5'UTR-driven translation, confirmation, luminescence, H4 neuroglioblastoma cells, dose confirmation (AID 2454); format: functional, cell-based;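 further: H4 neuroglioblastoma cells carrying an alpha-synuclein 5'UTR luciferase reporter; potency for inhibition of the luciferase signal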
[12] = LGR2 antagonists, dose response, cell-based, HEK293, CRE-luciferase reporter, cherry pick, set 2 (AID 743343); format: functional;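 further: transfected cells were stimulated with diluted bursicon conditioned medium after compound addition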
[13] = MC4R antagonists, dose response, counter-screen for LGR2 antagonist project, cell-based, plate reader, cherry pick (AID 743444); format: functional;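 further: transfected HEK 293 cells stimulated with alpha-MSH peptide; potency of inhibitors of the alpha-MSH evoked signal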
[14] = HepG2 cell cytotoxicity, dose response, cytotoxicity control, plate reader, cherry-pick, antagonist series (AID 743416); format: functional, cell-based
[15] = inhibitors of firefly luciferase expression or activity, dose response, H4 neuroglioma cells, luminescence (AID 1990); format: functional, cell-based
[16] = cells; format: functional, cell-based
[17] = inhibitors of SNCA 5'UTR-driven reporter translation, confirmation, H4 neuroglioma cells, luminescence (AID 1988); format: functional, cell-based
[18] = Luminescence Cell-Based Dose Response HTS to Identify Inhibitors of 5'UTR Stem-Loop Driven Prion Protein mRNA Translation in H4 Neuroglioblastoma Cells. [Related pubchem assays: 1827 (Project Summary), 1813 (Primary HTS)]; format: functional
[19] = A549 cell cytotoxicity, dose response, cytotoxicity control, plate reader, cherry-pick, antagonist series (AID 743412); format: functional, cell-based
[20] = HEK293 cell cytotoxicity, dose response, cytotoxicity control, plate reader, cherry-picked samples (AID 743446); format: functional, cell-based
[21] = target: T3, Long-chain-fatty-acid--AMP ligase FadD28 (Mycobacterium tuberculosis, UniProt P9WQ59); assay: Fluorescence polarization aasay to screen for inhibitors that compete for the binding of FadD28 to a bisubstrate Measured in Biochemical System Using Plate Reader - 2147-01_Inhibitor_Dose_CherryPick_Activity.; format: functional, Mycobacterium tuberculosis H37Rv
T3 sequence (P9WQ59 whole entry): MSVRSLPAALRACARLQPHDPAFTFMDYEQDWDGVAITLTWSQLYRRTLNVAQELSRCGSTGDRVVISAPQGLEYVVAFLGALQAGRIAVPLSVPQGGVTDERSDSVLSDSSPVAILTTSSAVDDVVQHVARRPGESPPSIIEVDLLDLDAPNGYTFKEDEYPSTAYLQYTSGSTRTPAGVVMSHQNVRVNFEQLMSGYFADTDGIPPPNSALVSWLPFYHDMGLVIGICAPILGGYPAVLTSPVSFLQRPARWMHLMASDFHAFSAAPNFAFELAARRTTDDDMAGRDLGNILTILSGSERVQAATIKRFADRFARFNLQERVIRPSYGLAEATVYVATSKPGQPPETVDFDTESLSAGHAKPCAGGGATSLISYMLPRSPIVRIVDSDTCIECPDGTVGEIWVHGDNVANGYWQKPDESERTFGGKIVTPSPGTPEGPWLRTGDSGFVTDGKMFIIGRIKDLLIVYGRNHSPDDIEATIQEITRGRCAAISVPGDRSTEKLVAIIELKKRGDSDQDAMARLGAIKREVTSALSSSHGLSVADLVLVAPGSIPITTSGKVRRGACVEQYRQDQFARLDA

[22] = target: T4, Replicative DNA helicase DnaB (Mycobacterium tuberculosis, UniProt P9WMR3); assay: DnaB intein splicing inhibitors, dose response, biochemical, cell-free fluorescence (AID 449749); format: functional
T4 sequence (P9WMR3 whole entry): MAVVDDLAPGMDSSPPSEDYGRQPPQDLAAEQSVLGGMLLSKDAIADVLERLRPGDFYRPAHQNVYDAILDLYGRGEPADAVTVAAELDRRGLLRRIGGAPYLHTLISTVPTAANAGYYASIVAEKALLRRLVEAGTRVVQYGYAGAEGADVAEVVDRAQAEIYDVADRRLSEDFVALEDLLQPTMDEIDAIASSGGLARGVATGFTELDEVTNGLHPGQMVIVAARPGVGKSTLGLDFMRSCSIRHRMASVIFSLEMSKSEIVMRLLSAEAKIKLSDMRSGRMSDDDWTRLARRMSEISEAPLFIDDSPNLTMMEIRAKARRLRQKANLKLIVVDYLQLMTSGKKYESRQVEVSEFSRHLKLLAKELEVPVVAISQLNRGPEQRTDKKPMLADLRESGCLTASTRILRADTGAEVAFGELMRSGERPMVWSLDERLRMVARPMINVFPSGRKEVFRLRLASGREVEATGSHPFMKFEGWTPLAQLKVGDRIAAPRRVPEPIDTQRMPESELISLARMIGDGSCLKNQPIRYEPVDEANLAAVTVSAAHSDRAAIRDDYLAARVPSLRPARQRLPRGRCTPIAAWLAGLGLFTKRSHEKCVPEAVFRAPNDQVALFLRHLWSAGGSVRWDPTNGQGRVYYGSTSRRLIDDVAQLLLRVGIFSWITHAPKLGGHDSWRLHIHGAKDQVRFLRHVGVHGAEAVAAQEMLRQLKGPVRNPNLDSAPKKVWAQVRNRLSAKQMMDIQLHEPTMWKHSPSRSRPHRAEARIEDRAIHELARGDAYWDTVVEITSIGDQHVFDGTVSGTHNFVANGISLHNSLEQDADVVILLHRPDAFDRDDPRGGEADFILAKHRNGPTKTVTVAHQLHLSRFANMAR

[23] = target: T5, Protein RecA (Mycobacterium tuberculosis, UniProt P9WHJ3); assay: Fluorescence Cell-Free Homogeneous Dose Retest to Identify Inhibitors of RecA-Intein Splicing Activity. [Related pubchem assays (depositor defined):AID2097, AID2223, AID489010, AID492950]; format: functional
T5 sequence (P9WHJ3 whole entry): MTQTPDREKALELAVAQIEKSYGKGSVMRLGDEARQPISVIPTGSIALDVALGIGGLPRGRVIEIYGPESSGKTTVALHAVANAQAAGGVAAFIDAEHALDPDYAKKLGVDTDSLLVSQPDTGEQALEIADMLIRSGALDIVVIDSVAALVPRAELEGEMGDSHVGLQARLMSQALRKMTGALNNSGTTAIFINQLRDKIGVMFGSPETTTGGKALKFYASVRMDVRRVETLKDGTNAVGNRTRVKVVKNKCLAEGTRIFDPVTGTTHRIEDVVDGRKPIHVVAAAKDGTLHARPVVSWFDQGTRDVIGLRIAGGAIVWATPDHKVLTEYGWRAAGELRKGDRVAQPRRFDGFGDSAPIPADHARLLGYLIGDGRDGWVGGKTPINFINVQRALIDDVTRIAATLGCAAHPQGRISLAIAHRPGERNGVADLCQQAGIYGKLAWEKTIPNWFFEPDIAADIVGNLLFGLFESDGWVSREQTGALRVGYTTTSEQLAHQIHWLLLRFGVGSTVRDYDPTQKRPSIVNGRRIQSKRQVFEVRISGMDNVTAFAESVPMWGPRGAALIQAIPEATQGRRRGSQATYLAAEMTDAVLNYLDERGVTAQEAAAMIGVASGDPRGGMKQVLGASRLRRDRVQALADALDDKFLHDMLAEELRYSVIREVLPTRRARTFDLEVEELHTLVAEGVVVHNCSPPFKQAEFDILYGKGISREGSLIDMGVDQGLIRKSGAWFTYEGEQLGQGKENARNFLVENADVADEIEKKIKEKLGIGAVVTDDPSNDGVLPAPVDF

SMILES	AC50 [2]	AC50 [4]	EC50 [7]	EC50 [8]	EC50 [9]	EC50 [15]	EC50 [17]	EC50 [18]	other results
O=C(CCl)N(c1ccccc1)C1CCS(=O)(=O)C1 (configuration not stated)	9.35 µM (active)	27.7 µM (active)	–	–	–	–	–	–	EC50 [1]: > 120 µM (not active); EC50 [3]: > 120 µM (not active); CC50 [5]: 6.82 µM (active)
COc1ccc(C(CNC(=O)C(Cc2ccccc2)NC(N)=O)N(C)C)cc1 (configuration not stated)	–	–	> 92.5 µM (inactive)	> 92.5 µM (inactive)	> 92.5 µM (inactive)	–	–	–	EC50 [6]: 0.473 µM (active)
CC(=O)CSc1ccc(-c2nc3cc(C)c(C)cc3[nH]2)cn1	3.67 µM (active)	–	44.8 µM (inactive)	> 92.5 µM (inactive)	> 92.5 µM (inactive)	0.113 µM (active)	< 0.1 µM (active)	12.8 µM (active)	EC50 [10]: 0.837 µM (active); EC50 [11]: 1 µM (active); AC50 [12]: 0.82 µM (active); AC50 [13]: 1.11 µM (active); AC50 [14]: > 52 µM (inactive); EC50 [16]: > 12 µM (inconclusive); AC50 [19]: > 52 µM (inactive); AC50 [20]: 34.7 µM (active)
O=C1C([N-]S(=O)(=O)c2cccs2)=C([n+]2ccccc2)C(=O)c2ccccc21	1.07 µM (active)	25.5 µM (active)	–	–	–	12.9 µM (active)	> 120 µM (not active)	14.2 µM (active)	AC50 [21]: > 100 µM (inactive); AC50 [22]: 10.2 µM (active); EC50 [23]: 6.59 µM (active)
